Data from PubChem BioAssay AID330 (DTP/NCI, 2004).
“And” between values parts separate entries of the source, which are not always exact repeats. Identical values can stand only once. Toxic doses and inconclusive results are not listed. Rule for the calls: active = survival T/C of 150% or more; inactive = T/C below 125% in these data.

Tested on: P388 leukemia ip, CD2F1 mice, survival T/C
Assay: NCI In Vivo Anticancer Drug Screen. Data for tumor model P388 Leukemia (intraperitoneal) in CD2F1 (CDF1) mice
Details: endpoint: median survival time, higher = longer survival
Procedure, shortened: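 Mice carrying the transplanted tumor received test compound or vehicle. Survival was recorded in each group, and the value is the treated-group measurement divided by that of the vehicle-treated control group.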

Measured: T/C

O=C(c1ccccc1)C(c1ccccc1)C(Cl)c1ccccc1 (stereo unspecified)
inactive: dose: 50.0 mg/kg/injection, schedule: Q01DX009 (ip), vehicle: Klucel (hydroxypropylcellulose) (HPC) 100 % of control | dose: 100.0 mg/kg/injection, schedule: Q01DX009 (ip), vehicle: Klucel (hydroxypropylcellulose) (HPC) 97 % of control | dose: 100.0 mg/kg/injection, schedule: Q04DX003 (ip), vehicle: Klucel (hydroxypropylcellulose) (HPC) 98 % of control | dose: 200.0 mg/kg/injection, schedule: Q01DX009 (ip), vehicle: Klucel (hydroxypropylcellulose) (HPC) 99 % of control | dose: 200.0 mg/kg/injection, schedule: Q04DX003 (ip), vehicle: Klucel (hydroxypropylcellulose) (HPC) 100 % of control | dose: 400.0 mg/kg/injection, schedule: Q04DX003 (ip), vehicle: Klucel (hydroxypropylcellulose) (HPC) 100 % of control

CCCCCCCCCCCC(=O)NC1CCS(=O)(=O)C1 (stereo unspecified)
inactive: dose: 37.5 mg/kg/injection, schedule: Q01DX009 (ip), vehicle: Klucel (hydroxypropylcellulose) (HPC) 99 % of control | dose: 75.0 mg/kg/injection, schedule: Q01DX009 (ip), vehicle: Klucel (hydroxypropylcellulose) (HPC) 96 % of control | dose: 150.0 mg/kg/injection, schedule: Q01DX009 (ip), vehicle: Klucel (hydroxypropylcellulose) (HPC) 97 % of control | dose: 300.0 mg/kg/injection, schedule: Q01DX009 (ip), vehicle: Klucel (hydroxypropylcellulose) (HPC) 95 % of control

CCOC(=O)/N=[N+](\[O-])c1ccc(Br)cc1
inactive: dose: 12.5 mg/kg/injection, schedule: Q01DX001 (ip), vehicle: Klucel (hydroxypropylcellulose) (HPC) 109 % of control | dose: 25.0 mg/kg/injection, schedule: Q01DX001 (ip), vehicle: Klucel (hydroxypropylcellulose) (HPC) 115 % of control | dose: 50.0 mg/kg/injection, schedule: Q01DX001 (ip), vehicle: Klucel (hydroxypropylcellulose) (HPC) 103 % of control

FC(F)(F)c1ccccc1NC(=S)SCc1ccc(Cl)cc1
inactive: dose: 50.0 mg/kg/injection, schedule: Q01DX009 (ip), vehicle: suspension in saline 104 % of control | dose: 100.0 mg/kg/injection, schedule: Q01DX009 (ip), vehicle: suspension in saline 101 % of control | dose: 200.0 mg/kg/injection, schedule: Q01DX009 (ip), vehicle: suspension in saline 108 % of control

C1=C(C2=C[P+](c3ccccc3)(c3ccccc3)C=C(c3ccccc3)O2)OC(c2ccccc2)=C[P+]1(c1ccccc1)c1ccccc1
inactive: dose: 12.5 mg/kg/injection, schedule: Q01DX005 (ip), vehicle: saline with Tween-80 103 % of control | dose: 25.0 mg/kg/injection, schedule: Q01DX005 (ip), vehicle: saline with Tween-80 100 % of control

CCN1CCCC(Nc2cc(C)nc(/N=C(/N)Nc3ccc(Cl)c(Cl)c3)n2)C1 (stereo unspecified)
inactive: dose: 3.13 mg/kg/injection, schedule: Q01DX009 (ip), vehicle: water 93 % of control | dose: 6.25 mg/kg/injection, schedule: Q01DX009 (ip), vehicle: water 97 % of control | dose: 12.5 mg/kg/injection, schedule: Q01DX009 (ip), vehicle: water 107 % of control and 97 % of control | dose: 25.0 mg/kg/injection, schedule: Q01DX009 (ip), vehicle: water 101 % of control

CCCCCCCCCCCCCCCCSc1ccc(C)cc1
inactive: dose: 25.0 mg/kg/injection, schedule: Q04DX003 (ip), vehicle: other 105 % of control | dose: 50.0 mg/kg/injection, schedule: Q04DX003 (ip), vehicle: other 95 % of control | dose: 100.0 mg/kg/injection, schedule: Q04DX003 (ip), vehicle: other 100 % of control

NC(=S)n1nc(-c2ccccc2)c(N=Nc2ccc([N+](=O)[O-])cc2)c1-c1ccccc1
inactive: dose: 25.0 mg/kg/injection, schedule: Q04DX002 (ip), vehicle: saline with Tween-80 100 % of control | dose: 50.0 mg/kg/injection, schedule: Q04DX002 (ip), vehicle: saline with Tween-80 97 % of control | dose: 100.0 mg/kg/injection, schedule: Q04DX002 (ip), vehicle: saline with Tween-80 87 % of control and 88 % of control | dose: 400.0 mg/kg/injection, schedule: Q04DX002 (ip), vehicle: saline with Tween-80 92 % of control

c1ccc2c(c1)Nc1nccnc1[Se]2
inactive: dose: 100.0 mg/kg/injection, schedule: Q04DX002 (ip), vehicle: Klucel (hydroxypropylcellulose) (HPC) 100 % of control | dose: 200.0 mg/kg/injection, schedule: Q04DX002 (ip), vehicle: Klucel (hydroxypropylcellulose) (HPC) 101 % of control | dose: 400.0 mg/kg/injection, schedule: Q04DX002 (ip), vehicle: Klucel (hydroxypropylcellulose) (HPC) 101 % of control

COP(=O)(OC)C(O)C1CCCCC1 (stereo unspecified)
inactive: dose: 12.5 mg/kg/injection, schedule: Q01DX009 (ip), vehicle: saline 100 % of control | dose: 25.0 mg/kg/injection, schedule: Q01DX009 (ip), vehicle: saline 116 % of control | dose: 50.0 mg/kg/injection, schedule: Q01DX009 (ip), vehicle: saline 100 % of control and 106 % of control | dose: 200.0 mg/kg/injection, schedule: Q01DX009 (ip), vehicle: saline 99 % of control
